How the values were obtained:
[1] = tested on: HCV replicon genotype 1b; test: HCV replicon assay, genotype 1b (cell ELISA for NS3/4A); type: cell-based; conditions: Hepatitis C virus, 96 h, read-out: 1b IC50 (nM)
Procedure: (§1) Measurement of inhibition by compounds was performed using the HCV replicon system. Several different replicons encoding different HCV genotypes or mutations were used. In addition, potency measurements were made using different formats of the replicon assay, including different ways of measurements and different plating formats. See Jan M. Vrolijk et al., A replicons-based bioassay for the measurement of interferons in patients with chronic hepatitis C, 110 J. V[…] 201 (2003); Steven S. Carroll et al., Inhibition of Hepatitis C Virus RNA Replication by 2′-Modified Nucleoside Analogs, 278(14) J. BIOLOGICAL CHEMISTRY 11979 (2003). However, the underlying principles are common to all of these determinations, and are outlined below.
(§2) Stable neomycin phosphotransferase encoding replicons-harboring cell lines were used, so all cell lines were maintained under G418 selection prior to the assay. Potency was determined using a cell ELISA assay with an antibody to the replicons encoded NS3/4a protease. See Caterina Trozzi et al., In Vitro Selection and Characterization of Hepatitis C Virus Serine Protease Variants Resistant to an Active-Site Peptide Inhibitor, 77(6) J. Virol. 3669 (2003). To initiate an assay, replicon cells were plated in the presence of a dilution series of test compound in the absence of G418. Typically, the assays were performed in a 96-well plate formate for manual operation, or a 384-well plate format for automated assay. Replicon cells and compound were incubated for 96 hours. At the end of the assay, cells were washed free of media and compound, and the cells were then lysed. RNA was quantified indirectly through detection of replicon-encoded NS3/4A protein levels, through an ELISA-based assay with an antibody specific for NS3/4A. IC50 determinations were calculated as a percentage of a DMSO control by fitting the data to a four-parameter fit function and the data obtained is provided in the table below.
(§3) Data for selected compounds of the present invention was obtained for genotypes 1a and 1b using this method and is provided in the table below: […]

[2] = tested on: HCV replicon genotype 1a; test: HCV replicon assay, genotype 1a (cell ELISA for NS3/4A); type: cell-based; conditions: Hepatitis C virus, 96 h, read-out: 1a IC50 (nM)
Procedure: as §1, §2, §3

Row | SMILES | IC50 [1] [nM] | IC50 [2] [nM]
1 | CNC(=O)c1c(-c2ccc(F)cc2)oc2cc(N(C)S(C)(=O)=O)c(-c3nnc(-c4cc5c(F)cccc5[nH]4)o3)cc12 [Compound 256, 5-(5-(4-fluoro-1H-indol-2-yl)-1,3,4-oxadiazol-2-yl)-2-(4-fluorophenyl)-N-methyl-6-(N-methylmethylsulfonamido)benzofuran-3-carboxamide] | 0.7 | 0.4
2 | CNC(=O)c1c(-c2ccc(F)cc2)oc2cc(N(C)S(C)(=O)=O)c(-c3ccc(O)c(C4Cc5c(F)cccc5N4)n3)cc12 (stereo not drawn) [Compound 257, 5-(6-(4-fluoroindolin-2-yl)-5-hydroxypyridin-2-yl)-2-(4-fluorophenyl)-N-methyl-6-(N-methylmethylsulfonamido)benzofuran-3-carboxamide] | 10 | 13
3 | CNC(=O)c1c(-c2ccc(F)cc2)oc2cc(N(C)S(C)(=O)=O)c(-c3nc(-c4cc5c(F)cccc5[nH]4)ns3)cc12 [Compound 258] | 2.5 | 2.6
4 | CNC(=O)c1c(-c2ccc(F)cc2)oc2cc(N(C)S(C)(=O)=O)c(-c3cnnc(-c4cc5c(F)cccc5[nH]4)c3)cc12 [Compound 259] | 2.6 | 1.1
5 | CNC(=O)c1c(-c2ccc(F)cc2)oc2cc(N(C)S(C)(=O)=O)c(-c3cnnc(-c4cc5c(C#N)cccc5[nH]4)c3)cc12 [Compound 260] | 1.1 | 0.7
6 | CNC(=O)c1c(-c2ccc(F)cc2)oc2cc(N(C)S(C)(=O)=O)c(-c3cc(-c4cc5c(F)cccc5[nH]4)cnn3)cc12 [Compound 263] | 2.4 | 3.2
7 | CNC(=O)c1c(-c2ccc(F)cc2)oc2cc(N(C)S(C)(=O)=O)c(-c3cnnc(-n4ncc5c(F)cccc54)c3)cc12 [Compound 264] | 10 | 25
8 | CNC(=O)c1c(-c2ccc(F)cc2)oc2cc(N(C)S(C)(=O)=O)c(-c3cnnc(-n4cc5c(F)cccc5n4)c3)cc12 [Compound 265] | 4.1 | 4.5
9 | CNC(=O)c1c(-c2ccc(F)cc2)oc2cc(N(C)S(C)(=O)=O)c(-c3cc(-c4cc5c(C#N)cccc5[nH]4)nnc3C)cc12 [Compound 266] | 3 | 3.2
10 | CNC(=O)c1c(-c2ccc(F)cc2)oc2cc(N(C)S(C)(=O)=O)c(-c3cc(-c4cc5c(F)cccc5[nH]4)nnc3C)cc12 [Compound 268] | 6.1 | 5.3
11 | CNC(=O)c1c(-c2ccc(F)cc2)oc2ccc(-c3cc(-c4cc5c(F)cccc5[nH]4)nnc3C)cc12 [Compound 270] | 36 | 42
12 | CNC(=O)c1c(-c2ccc(F)cc2)oc2cc(N(C)S(C)(=O)=O)c(-c3cc(-c4nc5ccccc5o4)cnn3)cc12 [Compound 271] | 10 | 14
13 | CNC(=O)c1c(-c2ccc(F)cc2)oc2cc(N(C)S(C)(=O)=O)c(-c3cc(-c4cc5c(F)cccc5[nH]4)nc(N)n3)cc12 [Compound 272] | 4.4 | 4.2
14 | CNC(=O)c1c(-c2ccc(F)cc2)oc2cc(N(C)S(C)(=O)=O)c(-c3cnnc(-c4cc5c(C#N)cccc5n4C)c3)cc12 [Compound 273] | 0.2 | 0.3
15 | CNC(=O)c1c(-c2ccc(F)cc2)oc2cc(N(C)S(C)(=O)=O)c(-c3cnnc(-c4cc5c(F)cccc5n4CCO)c3)cc12 [Compound 277] | 6.7 | 7.4
16 | CNC(=O)c1c(-c2ccc(F)cc2)oc2cc(N(C)S(C)(=O)=O)c(-c3cc(-c4cc5c(F)cccc5n4CCOC)cnn3)cc12 [Compound 278] | 14 | 37
17 | CNC(=O)c1c(-c2ccc(F)cc2)oc2cc(N(C)S(C)(=O)=O)c(-c3cnnc(-c4cc5c(F)cccc5n4CCOC)c3)cc12 [Compound 279] | 3.2 | 2.5
18 | CNC(=O)c1c(-c2ccc(F)cc2)oc2cc(N(C)S(C)(=O)=O)c(-c3cnnc(N4Cc5cccc(F)c5C4)c3)cc12 [Compound 280] | 1.4 | 1.2
19 | CNC(=O)c1c(-c2ccc(F)cc2)oc2cc(N(C)S(C)(=O)=O)c(-c3cnnc(N4Cc5c(F)cccc5C4=O)c3)cc12 [Compound 281] | 4.8 | 22.3
20 | CNC(=O)c1c(-c2ccc(F)cc2)oc2cc(N(C)S(C)(=O)=O)c(-c3cnnc(-c4cc5c(OC)cccc5[nH]4)c3)cc12 [Compound 282] | 1.8 | 3.3
21 | CNC(=O)c1c(-c2ccc(F)cc2)oc2cc(N(C)S(C)(=O)=O)c(-c3cnnc(-c4cc5cccnc5n4C)c3)cc12 [Compound 284] | 2.7 | 6
22 | CNC(=O)c1c(-c2ccc(F)cc2)oc2cc(N(C)S(C)(=O)=O)c(-c3cnnc(-c4cc5ncccc5[nH]4)c3)cc12 [Compound 286] | 5 | 17
23 | CNC(=O)c1c(-c2ccc(F)cc2)oc2cc(N(C)S(C)(=O)=O)c(-c3cnnc(-c4nc5ccccc5s4)c3)cc12 [Compound 287] | 5.1 | 3.2
24 | CNC(=O)c1c(-c2ccc(F)cc2)oc2cc(N(C)S(C)(=O)=O)c(-c3cnnc(-c4[nH]c5ccccc5c4C)c3)cc12 [Compound 288] | 25 | 75
25 | CNC(=O)c1c(-c2ccc(F)cc2)oc2cc(N(C)S(C)(=O)=O)c(-c3cc(-c4[nH]c5ccccc5c4C)cnn3)cc12 [Compound 289] | 22 | 54
26 | CNC(=O)c1c(-c2ccc(F)cc2)oc2cc(N(C)S(C)(=O)=O)c(-c3cc(-c4cc5c(F)cccc5[nH]4)ncc3-c3cc4c(F)cccc4[nH]3)cc12 [Compound 290] | 10 | 9.8
27 | CNC(=O)c1c(-c2ccc(F)cc2)oc2cc(N(C)S(C)(=O)=O)c(-c3cc(N4Cc5cccc(F)c5C4)ncc3Cl)cc12 [Compound 291] | 8 | 4.8
28 | CNC(=O)c1c(-c2ccc(F)cc2)oc2cc(N(C)S(C)(=O)=O)c(-c3cc(-c4cc5c(F)cccc5[nH]4)ncc3Cl)cc12 [Compound 292] | 13 | 12
29 | CNC(=O)c1c(-c2ccc(F)cc2)oc2cc(N(C)S(C)(=O)=O)c(-c3cc(-c4cc5c(F)cccc5[nH]4)ncc3OC)cc12 [Compound 293] | 41 | 131
30 | CNC(=O)c1c(-c2ccc(F)cc2)oc2cc(N(C)S(C)(=O)=O)c(-c3cc(N4Cc5cccc(F)c5C4)ncc3OC)cc12 [Compound 294] | 22 | 54

Reference: US9549917B2, “Heterocyclic-substituted benzofuran derivatives and methods of use thereof for the treatment of viral diseases” (priority 2011, dated 2017)
